Legend:
[1] = test system: MRP2, MRP3; test: Loganin transport across Caco-2 monolayers with MRP2/MRP3 inhibitor benzbromarone; type: in vitro ADME, human; parameters: key to Modulatory effect: +: Indicates that the inhibitor has significant effect on the loganin transport
Description: (§1) Before the experiments, the human intestinal Caco-2 cell monolayers were washed twice with HBSS medium (pH 7.4). The transport experiments were conducted by adding the drug solutions (containing 1% DMSO) to either the apical (AP, 0.5 mL) or basolateral side (BL, 1.0 mL), while the receiving chamber contained the corresponding volume of blank HBSS medium. The monolayers were incubated at 37°C, and 50 μL samples were taken at 15, 30, 45, 60, 90, and 120 min from the acceptor compartment, and the volume was then immediately replaced with50 μL of fresh, prewarmed blank HBSS. TEER measurements for assessing the membrane integrity took place before and after the experiment. The samples were frozen immediately and stored below −80°C before analysis.
(§2) Several efflux and influx transporters were investigated for their effects on the transport flux of loganin. One hundred μM verapamil was added to evaluate the selectivity of P-glycoprotein (P-gp); inhibiting the efflux by multidrug resistance-associated proteins (MRPs) was undertaken by adding 100μM MK571, 50μM benzbromarone, and 200μM indomethacin [21–23]; 25 μM apigenin was used to investigate breast cancer resistance protein (BCRP); 50 μM sodium vanadate and cimetidine were used as Na^+/K^+pump and […] inhibitors.
(§3) UPLC-MS/MS data acquisition was performed using Analyst 1.5.2 and MultiQuant 2.1.1 software (Applied Biosystems). The data were analyzed by SPSS Software. The apparent permeability coefficient (Papp) was calculated according to Papp = (dQ/dt)/(A·C0)
(§4) where dQ/dt is the steady-state flux (nmol/s), A is the surface area of the insert (cm^2); C0 is the initial concentration. The efflux ratio (P) was determined by calculating the ratio of PappBA versus PappAB as in(1) P=PappBA/PappAB Statistical analysis was performed with analysis of variance (ANOVA) after confirmation of normal distributions.

[2] = test system: OATs; test: Loganin transport across Caco-2 monolayers with OATs inhibitor cimetidine; type: in vitro ADME, human
Description: as §1, §2, §3, §4

[3] = test system: MRPs; test: Loganin transport across Caco-2 monolayers with MRPs inhibitor MK 571; type: in vitro ADME, human; parameters: key to Modulatory effect: +: Indicates that the inhibitor has significant effect on the loganin transport
Description: as §1, §2, §3, §4

[4] = stated as well known, no reference given; cited from earlier work
[5] = test system: Na+/K+ pump; test: Loganin transport across Caco-2 monolayers with Na+/K+ pump inhibitor sodium vanadate; type: in vitro ADME, human; details: human
Description: as §1, §2, §3, §4

[6] = test system: Na^+/K^+pump; test: as above; type: in vitro ADME, human; details: pretreatment with 50 μM sodium vanadate
Description: as §1, §2, §3, §4

[7] = target: T1, MRP2 (Homo sapiens, UniProt Q92887); test: Loganin transport across Caco-2 monolayers with MRP2 inhibitor indomethacin; type: in vitro ADME; parameters: key to Modulatory effect: +: Indicates that the inhibitor has significant effect on the loganin transport
T1 construct: MRP2 and MRP3 were the main apically and basolaterally localized MRPs of the Caco-2 cells; endogenous in cells; host or cells: Caco-2 monolayers
Description: as §1, §2, §3, §4

[8] = test system: T2, MRP2; test: as above; type: in vitro ADME, human; parameters: key to Modulatory effect: +: Indicates that the inhibitor has significant effect on the loganin transport; details: human, Caco-2, pH 7.4; with indomethacin 200 μM, loganin 20 μM, n = 3
T2 construct: MRP2 and MRP3 were the main apically and basolaterally localized MRPs of the Caco-2 cells; endogenous in cells; host or cells: Caco-2 monolayers
Description: as §1, §2, §3, §4

[9] = test system: human intestinal Caco-2 cell monolayers; test: Bidirectional transport across Caco-2 cell monolayers (concentration, time, pH, temperature; control without inhibitor); type: in vitro ADME
Description: Cells were maintained in DMEM with 10% FBS, 1× nonessential amino acids, and 1× penicillin and streptomycin at 37°C with 5% CO2. Cells of passage 35-40 were used in this study to maintain relatively constant cellular phenotypes. The medium was replaced every 2-3 days during incubation. After reaching approximately 80% confluence, the cells were detached using 0.02% ethylenediaminetetraacetic acid (EDTA) and 0.05% trypsin at a density of 5.3×10^4 cells/cm^2 on a 60-mm plastic culture dish for the uptake experiment or a 12-mm polyester membrane insert in a 12-well plate for the permeation experiment. The media in the culture plates were changed every two days for the first week after seeding and replaced daily afterward. The integrity of the cell monolayers was examined by measuring the transepithelial electrical resistance (TEER) with a Millicell-ERS-electrode (Millipore Corp, Billerica, MA, USA). After 21-23 days, monolayers with a TEER value (TEER=[TEERtest- TEERbackground]×area) above 500Ωcm^2 were used during the transport experiments.
as §1
The loganin transport (20 μM) at 4°C and 37°C was evaluated in the AP to BL direction to investigate the effect of temperature. The effect of pH on the loganin transport (20 μM) in the AP to BL direction was studied using the following pH combinations for the HBSS in the acceptor/donor compartments: 6.0/7.4 and 7.4/7.4.
as §3, §4

[10] = human, Caco-2, pH 7.4, with benzbromarone 50 μM, loganin 20 μM, n = 3
[11] = human, Caco-2, pH 7.4, with cimetidine 50 μM, loganin 20 μM, n = 3
[12] = human, Caco-2, pH 7.4, with MK571 100 μM, with MK 571 100 μM, loganin 20 μM, n = 3
[13] = with 100 μM MK 571, 20 μM loganin
[14] = Caco-2, pH 7.4, with sodium vanadate 50 μM, loganin 20 μM, n = 3

T1 sequence (Q92887 whole entry): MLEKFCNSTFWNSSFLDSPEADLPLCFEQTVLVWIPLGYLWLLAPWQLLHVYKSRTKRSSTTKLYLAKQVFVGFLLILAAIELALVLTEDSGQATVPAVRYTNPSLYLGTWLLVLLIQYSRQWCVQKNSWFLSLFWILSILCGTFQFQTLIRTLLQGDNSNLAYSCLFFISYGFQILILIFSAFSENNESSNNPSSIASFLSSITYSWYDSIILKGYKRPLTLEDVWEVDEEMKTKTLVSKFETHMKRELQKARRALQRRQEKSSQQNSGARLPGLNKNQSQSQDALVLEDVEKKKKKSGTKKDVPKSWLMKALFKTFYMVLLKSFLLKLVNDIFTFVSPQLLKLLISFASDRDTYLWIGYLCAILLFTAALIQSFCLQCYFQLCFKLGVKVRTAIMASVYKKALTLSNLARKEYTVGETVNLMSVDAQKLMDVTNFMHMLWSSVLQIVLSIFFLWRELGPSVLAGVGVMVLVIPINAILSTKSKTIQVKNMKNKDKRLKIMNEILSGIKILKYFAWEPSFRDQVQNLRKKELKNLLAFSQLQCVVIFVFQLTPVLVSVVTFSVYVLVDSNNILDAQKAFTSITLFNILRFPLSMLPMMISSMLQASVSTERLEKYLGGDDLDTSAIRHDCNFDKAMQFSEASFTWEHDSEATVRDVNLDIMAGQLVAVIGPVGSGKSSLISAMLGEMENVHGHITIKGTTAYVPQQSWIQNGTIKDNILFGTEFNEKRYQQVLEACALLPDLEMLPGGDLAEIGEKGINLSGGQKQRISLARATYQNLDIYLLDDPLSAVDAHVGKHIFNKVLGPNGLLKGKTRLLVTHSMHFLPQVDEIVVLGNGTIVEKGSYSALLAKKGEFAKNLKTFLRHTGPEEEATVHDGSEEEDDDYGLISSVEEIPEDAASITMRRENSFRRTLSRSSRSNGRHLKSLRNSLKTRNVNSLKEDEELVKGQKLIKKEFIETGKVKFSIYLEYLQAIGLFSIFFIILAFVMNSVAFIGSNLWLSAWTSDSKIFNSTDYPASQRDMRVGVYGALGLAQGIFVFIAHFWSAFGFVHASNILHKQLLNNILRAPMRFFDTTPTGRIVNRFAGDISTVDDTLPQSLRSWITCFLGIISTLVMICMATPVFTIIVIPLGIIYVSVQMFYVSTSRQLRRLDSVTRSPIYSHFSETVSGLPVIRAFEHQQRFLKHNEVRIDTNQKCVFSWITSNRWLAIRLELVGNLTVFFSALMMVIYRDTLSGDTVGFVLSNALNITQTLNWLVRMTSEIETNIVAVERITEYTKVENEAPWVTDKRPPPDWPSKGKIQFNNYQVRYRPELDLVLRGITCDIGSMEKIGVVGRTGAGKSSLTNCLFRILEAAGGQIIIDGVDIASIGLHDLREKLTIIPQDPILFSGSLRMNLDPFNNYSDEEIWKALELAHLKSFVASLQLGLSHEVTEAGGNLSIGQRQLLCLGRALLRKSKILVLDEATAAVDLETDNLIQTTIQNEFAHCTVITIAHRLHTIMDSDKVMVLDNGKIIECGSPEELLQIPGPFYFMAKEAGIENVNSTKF

Structure (SMILES): COC(=O)C1=CO[C@@H](O[C@@H]2O[C@H](CO)[C@@H](O)[C@H](O)[C@H]2O)[C@@H]2[C@@H](C)[C@@H](O)C[C@H]12 [loganin, Loganin]
- efflux ratio at 120 min, 20 μM ([1]; human, Caco-2, pH 7.4, with benzbromarone 50 μM, read-out: P (efflux ratio PappBA/PappAB)): 0.23
- Papp A→B at 120 min, 20 μM [1, 10]: 29.5 ± 5.9 ×10⁻⁶ cm/s
- Papp B→A at 120 min, 20 μM [1, 10]: 6.7 ± 0.9 ×10⁻⁶ cm/s
- Modulatory effect ([1]; with benzbromarone 50 μM): +
- efflux ratio at 120 min, 20 μM ([2]; human, Caco-2, pH 7.4, with cimetidine 50 μM, read-out: P (efflux ratio PappBA/PappAB)): 0.9
- Papp A→B at 120 min, 20 μM [2, 11]: 11 ± 1.5 ×10⁻⁶ cm/s
- Papp B→A at 120 min, 20 μM [2, 11]: 9.9 ± 2 ×10⁻⁶ cm/s
- Effect on Papp values (in words) ([2]; pretreatment with 50 μM cimetidine): no significant effects
- Increase of transport from the apical to the basolateral side ([3]; after addition of a MRP inhibitor (not named in the abstract), vs control): 2.09 fold
- Papp A→B at 120 min, 20 μM [3, 12]: 27.2 ± 4.1 ×10⁻⁶ cm/s
- Papp B→A at 120 min, 20 μM [3, 12]: 3.9 ± 0.2 ×10⁻⁶ cm/s
- efflux ratio at 120 min, 20 μM ([3]; human, Caco-2, pH 7.4, with MK571 100 μM, with MK 571 100 μM, read-out: P (efflux ratio PappBA/PappAB)): 0.14
- PappAB relative to control group [3, 13]: ~2 fold
- Reduction of PappBA vs control [3, 13]: 66.7%
- Modulatory effect ([3]; with MK 571 100 μM): +
- Water solubility (in words) [4]: low
- efflux ratio at 120 min, 20 μM ([5]; Caco-2, pH 7.4, with sodium vanadate 50 μM, read-out: P (efflux ratio PappBA/PappAB)): 0.73
- Papp A→B at 120 min, 20 μM [5, 14]: 12.3 ± 0.7 ×10⁻⁶ cm/s
- Papp B→A at 120 min, 20 μM [5, 14]: 9 ± 1.1 ×10⁻⁶ cm/s
- Effect on Papp values (in words) [6]: no significant effects
- efflux ratio at 120 min, 20 μM ([7]; human, Caco-2, pH 7.4, with indomethacin 200 μM, read-out: P (efflux ratio PappBA/PappAB)): 0.18
- Modulatory effect ([7]; with indomethacin 200 μM): +
- Increase of PappAB vs control ([7]; with indomethacin, p < 0.01): 2.0 fold
- Papp A→B at 120 min, 20 μM [8]: 24.7 ± 4.8 ×10⁻⁶ cm/s
- Papp B→A at 120 min, 20 μM [8]: 4.4 ± 1.1 ×10⁻⁶ cm/s
- Intestinal absorption indicated by Papp values (in words) ([9]; classification by Papp > 1×10^−5cm/s = high absorption (>70%)): good intestinal absorption
- PappAB at pH 7.4 compared with pH 6 (in words) ([9]; loganin 20 μM, AP to BL, 60 min, p<0.05): significantly higher

From paper PMC6323428, “Elucidation of the Intestinal Absorption Mechanism of Loganin in the Human Intestinal Caco-2 Cell Model” (Evidence-based Complementary and Alternative Medicine : eCAM, 2018)
